According to US8617524B2, “Depigmenting keratin materials utilizing dithiolane compounds” (L'Oreal, priority 2008, dated 2013):

Legend:
[1] = system: co-culture of keratinocytes and melanocytes; test: Activity on constitutive melanogenesis (inhibition of melanin synthesis; thiouracil/leucine incorporation ratio); assay type: cell-based; details: for Maximum Activity: inhibitory activity on melanin synthesis, ratio of incorporation of thiouracil to leucine, relative to 100% of the control without test compound
Method: (§1) The modulatory effect of the compounds on constitutive melanogenesis was measured according to the method described in FR-A-2,734,825 and also in the article by Schmidt et al., Anal. Biochem., 235(2), 1996, pp. 113-118. This test is performed on a co-culture of keratinocytes and melanocytes.
For the test compounds, the inhibitory activity on melanin synthesis was determined, by estimating the ratio of incorporation of thiouracil to the incorporation of leucine, relative to 100% of the control (the control corresponds to the test performed without test compound).

[2] = system: co-culture of keratinocytes and melanocytes; test: Cytotoxicity on a co-culture; assay type: cell-based
Method: as §1

SMILES | Maximum Activity [1] [%] | Cytotoxicity on a co-culture [2] | depigmenting action compared with arbutin and kojic acid ([1]; conclusion in words from the table of Example 25)
OC[C@H]1O[C@@H](Oc2ccc(O)cc2)[C@H](O)[C@@H](O)[C@@H]1O [Arbutin] | −44 | Non-cytotoxic | –
CC1(C(N)=O)CSSC1 [Compound 2, 4-methyl-1,2-dithiolane-4-carboxamide] | −76 | 100 µM | greater depigmenting action than arbutin and kojic acid
O=c1cc(CO)occ1O [Kojic acid] | −30 | 100 µM | –
